The substances below were run on smooth muscle of pulmonary arteries (assay: relaxation of pulmonary arteries contracted with phenylephrine ex vivo). Conditions: pulmonary arteries contracted with phenylephrine; peptides 1 nM-10 μM; mean±SEM; n = 9.
Parameters: species or system male Wistar rats
Text: The ex vivo model of pulmonary artery smooth muscle contraction with phenylephrine is very useful to screen candidate compounds for lung diseases that demand vasodilating effects (ALENCAR, A. K., PEREIRA, S. L., MONTAGNOLI, T. L., MAIA, R. C., KUMMERLE, A. E., LANDGRAF, S. S., CARUSO-NEVES, C., FERRAZ, E. B., TESCH, R., NASCIMENTO, J. H., DE SANT'ANNA, C. M., FRAGA, C. A., BARREIRO, E. J., SUDO, R. T., ZAPATA-SUDO, G. Beneficial effects of a novel agonist of the adenosine A2A receptor on monocrotaline-induced pulmonary hypertension in rats. Br J Pharmacol, 169: 953-62. 2013).
Rats were anesthetized with midazolam and ketamine (2 mg/kg and 100 mg/kg, respectively) via intraperitoneal administration. After infusion of a lethal dose of sodium thiopental via intraperitoneal administration (50 mg/kg), the trunk of the pulmonary artery was carefully removed via sternotomy. The pulmonary artery was carefully dissected and the connective tissue removed. The arteries were connected to a force transductor, positioned in vertical chambers filled with Krebs solution, oxygenated and kept at 37° C.
After a stabilization period of 2 hours at a tension of 1.5 grams, the arteries were exposed to increasing doses of phenylephrine (1 nM-10 μM) in order to obtain maximum smooth muscle contraction and then exposed to increasing doses of selected peptides in the concentrations of 1 nM-10 μM each (n=9). The tension generated by the pulmonary artery was evaluated at intervals of 5 minutes for each dose (ALENCAR, A. K., PEREIRA, S. L., MONTAGNOLI, T. L., MAIA, R. C., KUMMERLE, A. E., LANDGRAF, S. S., CARUSO-NEVES, C., FERRAZ, E. B., TESCH, R., NASCIMENTO, J. H., DE SANT'ANNA, C. M., FRAGA, C. A., BARREIRO, E. J., SUDO, R. T., ZAPATA-SUDO, G. Beneficial effects of a novel agonist of the adenosine A2A receptor on monocrotaline-induced pulmonary hypertension in rats. Br J Pharmacol 169: 953-62. 2013; ALENCAR, A. K., PEREIRA, S. L., DA SILVA, F. E., MENDES, L. V., CUNHA VDO, M., LIMA, L. M., MONTAGNOLI, T. L., CARUSO-NEVES, C., FERRAZ, E. B., TESCH, R., NASCIMENTO, J. H., SANT'ANNA, C. M., FRAGA, C. A., BARREIRO, E. J., SUDO, R. T., ZAPATA-SUDO, G. N-acylhydrazone derivative ameliorates monocrotaline-induced pulmonary hypertension through the modulation of adenosine AA2R activity. International Journal of Cardiology, 173(2): 154-62. 2014).
Potency values are shown as the negative logarithm of the concentration that reduced the voltage to 50% of the maximum phenylephrine-induced contraction (pEC50), and they are expressed as mean±SEM. The maximum contraction achieved in a given artery was considered to be 100% of contraction, and the effectiveness (Emax) was expressed as the relaxation percentage related to this maximum value. The results were calculated from at least 3 independent tests using the sigmoid non-linear regression equation, and the statistical analysis of the concentration curve was done by performing a nonlinear fit of the logarithmic of the agonist versus response. All the above calculations were performed on the software Graph Prism 5.0 (GraphPad Software, La Jolla, Calif., USA). Tension analysis was performed on the software LabChart7 (AD Instruments, Sydney, Australia). As a cutoff to determine biological significance, we considered pulmonary artery relaxation values above 30% as biologically relevant, considered those as active and then calculated the Emax values (SUN, C. K., LIN, Y. C., YUEN, C. M., CHUA, S., CHANG, L. T., SHEU, J. J., LEE, F. Y., FU, M., LEU, S., YIP, H. K. Enhanced protection against pulmonary hypertension with sildenafil and endothelial progenitor cell in rats. International journal of cardiology, 162(1): 45-58. 2012; ALENCAR, A. K., PEREIRA, S. L., DA SILVA, F. E., MENDES, L. V., CUNHA VDO, M., LIMA, L. M., MONTAGNOLI, T. L., CARUSO-NEVES, C., FERRAZ, E. B., TESCH, R., NASCIMENTO, J. H., SANT'ANNA, C. M., FRAGA, C. […]

In order of falling pEC50:
1. QYFWIAWYKLANS [SEQ ID NO: 17, Ac-Gln-Tyr-Phe-Trp-Ile-Ala-Trp-Tyr-Lys-Leu-Ala-Asn-Ser-NH2]  7.8 ± 3.0
2. YFWIAWYKLAN [SEQ ID NO: 18, Ac-Tyr-Phe-Trp-Ile-Ala-Trp-Tyr-Lys-Leu-Ala-Asn-NH2]  6.5 ± 9.3
3. RQYFWIAWY [SEQ ID NO: 20, Ac-Arg-Gln-Tyr-Phe-Trp-Ile-Ala-Trp-Tyr-NH2]  6.1 ± 6.9
4. WIAWYKL [SEQ ID NO: 23, Ac-Trp-Ile-Ala-Trp-Tyr-Lys-Leu-NH2]  6.1 ± 6.2
5. RQYFWIAW [SEQ ID NO: 22, Ac-Arg-Gln-Tyr-Phe-Trp-Ile-Ala-Trp-NH2]  5.8 ± 3.1

Same assay, conditions: relaxation percentage related to maximum phenylephrine contraction; n = 9

“QYFWIAWYKLANS [SEQ ID NO: 17, Ac-Gln-Tyr-Phe-Trp-Ile-Ala-Trp-Tyr-Lys-Leu-Ala-Asn-Ser-NH2]” was tested, and the “Effectiveness (Emax) (%)” value was 15% ± 2.6.
For “RQYFWIAW [SEQ ID NO: 22, Ac-Arg-Gln-Tyr-Phe-Trp-Ile-Ala-Trp-NH2]”, the “Effectiveness (Emax) (%)” value was 8% ± 2.83.
With “RQYFWIAWY [SEQ ID NO: 20, Ac-Arg-Gln-Tyr-Phe-Trp-Ile-Ala-Trp-Tyr-NH2]” the “Effectiveness (Emax) (%)” value was 6% ± 7.64.
With “WIAWYKL [SEQ ID NO: 23, Ac-Trp-Ile-Ala-Trp-Tyr-Lys-Leu-NH2]” the “Effectiveness (Emax) (%)” value was 4% ± 6.07.
“YFWIAWYKLAN [SEQ ID NO: 18, Ac-Tyr-Phe-Trp-Ile-Ala-Trp-Tyr-Lys-Leu-Ala-Asn-NH2]” was tested, and the “Effectiveness (Emax) (%)” value was 18% ± 9.12.

The substances below were run on smooth muscle of tracheal rings (assay: spasmodic contraction of tracheal rings ex vivo (histamine-induced)). Conditions: histamine-induced contraction ex vivo.
Parameters: species or system Dunkin-Hartley guinea pigs
Protocol: The magnitude of the relaxing effect of the peptides was evaluated by means of a model of spasmodic contraction of tracheal rings ex vivo, largely employed to test new bronchodilating agents (see CULLUM, V. A., FARMER, J. B., JACK, D., LEVY, G. P. Salbutamol: a new, selective β-adrenoceptive receptor stimulant. British journal of pharmacology, 35(1): 141-151. 1969; KAO, C. H., CHU, Y. H., WANG, H. W. Effects of lidocaine on rat's isolated tracheal smooth muscle. European Archives of Oto-Rhino-Laryngology, 267(5): 817-820. 2010; SORIANO-URSÚA, M. A., VALENCIA-HERNÁNDEZ, I., ARELLANO-MENDOZA, M. G., CORREA-BASURTO, J., TRUJILLO-FERRARA, J. G. Synthesis, pharmacological and in silico evaluation of 1-(4-dihydroxy-3, 5-dioxa-4-borabycyclo [4.4.0] deca-7,9,11-trien-9-yl)-2-(tert-butylamine) ethanol, a compound designed to act as a β2 adrenoceptor agonist. European journal of medicinal chemistry, 44(7): 2840-2846. 2009).
For each test, Dunkin-Hartley guinea pigs (400-500 g) were euthanized in a CO2 atmosphere; subsequently, the trachea was exposed, removed and sectioned in segments of 1 to 3 cartilaginous tracheal rings. Each segment was transferred to an individual organ bath system containing Krebs nutritive solution (NaCl 118 mM; KCl […]; CaCl2) 2.5 mM; MgSO4 1.2 mM; KH2PO4 1.2 mM; NaHCO324 mM; glucose 11 mM) at 37° C., under constant aeration with a carbogenic mixture (95% of O2 and 5% of CO2). In each system, a stem fixed to the base of the container and another connected to an isometric transducer (GRASS FT-03) made up the support of the fragments. A data digitizing system connected to the isometric transducer allowed the recording of tension variations produced by the contraction of the tracheal rings (PowerLab™ 16/30, LabChart, version 8.1, AD Instruments, Australia). The basal tension was adjusted to 1 g, and subsequently, the contractility of the fragments was evaluated by a stimulus with carbachol (2.5 μM). After 1 h at rest, the basal tension was recovered and the tissues were subjected to contraction induced by histamine (50 μM) followed by exposure to increasing concentrations of the treatments (0.01 to 10 μM; n=8) or the comparator PnTx(19).
Table 1 lists the mean±SEM of the potency values, shown as the negative logarithm of the concentration that reduced the voltage to 50% of the maximum Histamine-induced contraction (pEC50), and efficacy (Emax), calculated from at least 8 independent tests using the sigmoid nonlinear regression equation of the software Graph Prism 5.0 (GraphPad Software, La Jolla, Ca, USA).

In the case of “AQYFWIAWYKLANSK [SEQ ID NO: 4, Ac-Ala-Gln-Tyr-Phe-Trp-Ile-Ala-Trp-Tyr-Lys-Leu-Ala-Asn-Ser-Lys-NH2]”, the “relaxing effect on airway (tracheal ring) smooth muscle, in words” value is reported as “effective”.

Same assay, conditions: relaxation of tracheal rings contracted by histamine (50 μM); mean±SEM

In order of falling “Effectiveness (Emax) (%)” value:
1. AQYFWIAWYKLANSK [SEQ ID NO: 4, Ac-Ala-Gln-Tyr-Phe-Trp-Ile-Ala-Trp-Tyr-Lys-Leu-Ala-Asn-Ser-Lys-NH2]  38.8 ± 3.5%
2. YFWIAWYKLAN [SEQ ID NO: 18, Ac-Tyr-Phe-Trp-Ile-Ala-Trp-Tyr-Lys-Leu-Ala-Asn-NH2]  38.0 ± 2.3%
3. RQYFWIAWY [SEQ ID NO: 20, Ac-Arg-Gln-Tyr-Phe-Trp-Ile-Ala-Trp-Tyr-NH2]  37.8 ± 2.9%
4. QYFWIAWYKLANS [SEQ ID NO: 17, Ac-Gln-Tyr-Phe-Trp-Ile-Ala-Trp-Tyr-Lys-Leu-Ala-Asn-Ser-NH2]  37.1 ± 2.6%
5. WIAWYKL [SEQ ID NO: 23, Ac-Trp-Ile-Ala-Trp-Tyr-Lys-Leu-NH2]  35.5 ± 2.3%
6. RQYFWIAW [SEQ ID NO: 22, Ac-Arg-Gln-Tyr-Phe-Trp-Ile-Ala-Trp-NH2]  35.2 ± 1.8%

Same assay, conditions: tracheal rings contracted by histamine (50 μM); peptides 0.01 to 10 μM; mean±SEM

In order of rising “Potency (pEC50) Molar” value:
1. AQYFWIAWYKLANSK [SEQ ID NO: 4, Ac-Ala-Gln-Tyr-Phe-Trp-Ile-Ala-Trp-Tyr-Lys-Leu-Ala-Asn-Ser-Lys-NH2]  6.8 ± 0.3 Molar
2. QYFWIAWYKLANS [SEQ ID NO: 17, Ac-Gln-Tyr-Phe-Trp-Ile-Ala-Trp-Tyr-Lys-Leu-Ala-Asn-Ser-NH2]  6.8 ± 0.3 Molar
3. RQYFWIAW [SEQ ID NO: 22, Ac-Arg-Gln-Tyr-Phe-Trp-Ile-Ala-Trp-NH2]  7.0 ± 0.2 Molar
4. RQYFWIAWY [SEQ ID NO: 20, Ac-Arg-Gln-Tyr-Phe-Trp-Ile-Ala-Trp-Tyr-NH2]  7.1 ± 0.3 Molar
5. YFWIAWYKLAN [SEQ ID NO: 18, Ac-Tyr-Phe-Trp-Ile-Ala-Trp-Tyr-Lys-Leu-Ala-Asn-NH2]  7.2 ± 0.3 Molar
6. WIAWYKL [SEQ ID NO: 23, Ac-Trp-Ile-Ala-Trp-Tyr-Lys-Leu-NH2]  7.5 ± 0.3 Molar

Source: patent US10905738B2, “Synthetic peptides, prodrugs, pharmaceutical compositions and uses” (Biozeus Desenvolvimento De Produtos Biofarmacêuticos, priority 2018, dated 2021)
